target: T1, human mGlu 5a receptor (Homo sapiens, UniProt P41594); assay: [3H]MPEP competition binding on membranes of EBNA cells transfected with human mGlu 5a receptor; conditions: competition with [3H]MPEP (2 nM), 1 h at 4° C., Ki=IC50/[1+L/Kd]
T1 construct: expressed in transfected cells; host or cells: EBNA cells (transient transfection); cell membrane homogenates
Description: The pharmacological activity of the compounds was tested using the following method: For binding experiments, cDNA encoding human mGlu 5a receptor was transiently transfected into EBNA cells using a procedure described by Schlaeger and Christensen [Cytotechnology 15:1-13 (1998)]. Cell membrane homogenates were stored at −80° C. until the day of assay where upon they were thawed and resuspended and polytronised in 15 mM Tris-HCl, 120 mM NaCl, 100 mM KCl, 25 mM CaCl2, 25 mM MgCl2 binding buffer at pH 7.4 to a final assay concentration of 20 μg protein/well.
Saturation isotherms were determined by addition of twelve [^3H]MPEP concentrations (0.04-100 nM) to these membranes (in a total volume of 200 μl) for 1 h at 4° C. Competition experiments were performed with a fixed concentration of [^3H]MPEP (2 nM) and IC50 values of test compounds evaluated using 11 concentrations (0.3-10,000 nM). Incubations were performed for 1 h at 4° C.
At the end of the incubation, membranes were filtered onto unifilter (96-well white microplate with bonded GF/C filter preincubated 1 h in 0.1% PEI in wash buffer, Packard BioScience, Meriden, Conn.) with a Filtermate 96 harvester (Packard BioScience) and washed 3 times with cold 50 mM Tris-HCl, pH 7.4 buffer. Nonspecific binding was measured in the presence of 10 μM MPEP. The radioactivity on the filter was counted (3 min) on a Packard Top-count microplate scintillation counter with quenching correction after addition of 45 μl of microscint 40 (Canberra Packard S.A., Zürich, Switzerland) and shaking for 20 min.
The inhibition (antagonists) curves were fitted with a four parameter logistic equation giving IC50, and Hill coefficient using iterative non linear curve fitting software (Xcel fit).
For binding experiments the Ki values of the compounds tested are given. The Ki value is defined by the following formula: Ki=IC50/[1+L/Kd] in which the IC50 values are those concentrations of the compounds tested which cause 50% inhibition of the competing radioligand ([^3H]MPEP). L is the concentration of radioligand used in the binding experiment and the Kd value of the radioligand is empirically determined for each batch of membranes prepared.

T1 sequence (P41594 21-1180 isoform P41594-2 limits assumed): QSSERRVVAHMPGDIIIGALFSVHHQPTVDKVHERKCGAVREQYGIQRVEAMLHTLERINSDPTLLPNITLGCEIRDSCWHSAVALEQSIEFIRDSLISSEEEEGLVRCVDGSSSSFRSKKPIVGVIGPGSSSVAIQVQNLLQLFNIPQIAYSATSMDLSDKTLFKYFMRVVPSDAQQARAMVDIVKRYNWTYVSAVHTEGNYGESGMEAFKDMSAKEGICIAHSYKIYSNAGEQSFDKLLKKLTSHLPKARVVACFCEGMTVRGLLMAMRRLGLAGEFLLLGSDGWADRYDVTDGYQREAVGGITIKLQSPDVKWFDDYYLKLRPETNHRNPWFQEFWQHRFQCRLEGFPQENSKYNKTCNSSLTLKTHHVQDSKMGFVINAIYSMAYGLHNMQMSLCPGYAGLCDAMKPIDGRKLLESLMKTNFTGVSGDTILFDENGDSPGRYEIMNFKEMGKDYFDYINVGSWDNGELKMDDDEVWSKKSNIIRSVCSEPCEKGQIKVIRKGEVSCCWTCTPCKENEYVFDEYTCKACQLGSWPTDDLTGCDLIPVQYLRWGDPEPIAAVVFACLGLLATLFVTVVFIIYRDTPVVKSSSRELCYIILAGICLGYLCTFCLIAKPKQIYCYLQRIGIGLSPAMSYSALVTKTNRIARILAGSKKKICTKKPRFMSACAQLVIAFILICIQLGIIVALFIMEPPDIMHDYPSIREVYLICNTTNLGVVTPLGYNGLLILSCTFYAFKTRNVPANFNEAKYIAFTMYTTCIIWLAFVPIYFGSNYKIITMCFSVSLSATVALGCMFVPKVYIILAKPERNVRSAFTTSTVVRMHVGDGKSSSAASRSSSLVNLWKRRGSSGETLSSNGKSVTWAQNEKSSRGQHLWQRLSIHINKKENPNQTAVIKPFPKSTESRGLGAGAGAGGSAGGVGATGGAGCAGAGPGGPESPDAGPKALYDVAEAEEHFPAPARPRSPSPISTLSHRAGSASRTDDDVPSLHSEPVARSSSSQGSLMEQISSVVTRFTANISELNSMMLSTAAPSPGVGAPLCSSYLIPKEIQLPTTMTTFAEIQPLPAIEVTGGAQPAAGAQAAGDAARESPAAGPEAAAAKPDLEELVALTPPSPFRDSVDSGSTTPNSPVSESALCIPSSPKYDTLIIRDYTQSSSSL

Which Ki does the source give for `Fc1ccc(Nc2ncc(-c3cccnc3)c3cccnc23)nc1` [Example 10, (5-Fluoro-pyridin-2-yl)-(5-pyridin-3-yl-[1,7]naphthyridin-8-yl)-amine] here?
The Ki was 19 nM.

Which Ki does the source give for `Cc1csc(Nc2ncc(-c3cncc(C(F)(F)F)n3)c3ccc(C)nc23)n1` [Example 81, (4-Methyl-thiazol-2-yl)-[2-methyl-5-(6-trifluoromethyl-pyrazin-2-yl)-[1,7]naphthyridin-8-yl]-amine] here?
The Ki was 51 nM.

`COc1cncc(-c2cnc(Nc3ccc(F)cn3)c3ncccc23)c1` [Example 17, (5-Fluoro-pyridin-2-yl)-[5-(5-methoxy-pyridin-3-yl)-[1,7]naphthyridin-8-yl]-amine] was tested. Which Ki did it give?
The Ki was 41 nM.

How did the Ki turn out when `Fc1ccc(Nc2ncc(-c3cncnc3)c3cccnc23)nc1` [Example 19, (5-Fluoro-pyridin-2-yl)-(5-pyrimidin-5-yl-[1,7]naphthyridin-8-yl)-amine] was run?
Its Ki is 44 nM.

`Clc1cccc(Nc2ncc(-c3ccc(Cl)nc3)c3cccnc23)c1` [Example 11, (3-Chloro-phenyl)-[5-(6-chloro-pyridin-3-yl)-[1,7]naphthyridin-8-yl]-amine] was tested. Which Ki did it give?
The Ki was 8 nM.

`Cc1csc(Nc2nccc3cccnc23)n1` [Example 5, (4-Methyl-thiazol-2-yl)-[1,7]naphthyridin-8-yl-amine] was tested. Which Ki did it give?
The Ki was 62 nM.

How did the Ki turn out when `Clc1cc(Nc2ncc(-c3cccnc3)c3cccnc23)ccn1` [Example 8, (2-Chloro-pyridin-4-yl)-(5-pyridin-3-yl-[1,7]naphthyridin-8-yl)-amine] was run?
Its Ki is 38 nM.

`Cc1cccc(Nc2nccc3cccnc23)n1` [Example 1, (6-Methyl-pyridin-2-yl)-[1,7]naphthyridin-8-yl-amine] was tested. Which Ki did it give?
The Ki was 25 nM.

How did the Ki turn out when `COc1cccc(-c2cnc(Nc3nc(C)cs3)c3nc(C)ccc23)c1` [Example 42, [5-(3-Methoxy-phenyl)-2-methyl-[1,7]naphthyridin-8-yl]-(4-methyl-thiazol-2-yl)-amine] was run?
Its Ki is 56 nM.

How did the Ki turn out when `Cc1csc(Nc2ncc(-c3cccc(C(F)(F)F)c3)c3ccc(C)nc23)n1` [Example 43, (4-Methyl-thiazol-2-yl)-[2-methyl-5-(3-trifluoromethyl-phenyl)-[1,7]naphthyridin-8-yl]-amine] was run?
Its Ki is 51 nM.

Which Ki does the source give for `Cc1ccc2c(-c3cccc(F)c3)cnc(Nc3ccn(C)n3)c2n1` [Example 68, [5-(3-Fluoro-phenyl)-2-methyl-[1,7]naphthyridin-8-yl]-(1-methyl-1H-pyrazol-3-yl)-amine] here?
Its Ki is 38 nM.

For `Cc1cccc(Nc2ncc(-c3cccnc3)c3cccnc23)n1` [Example 6, (6-Methyl-pyridin-2-yl)-(5-pyridin-3-yl-[1,7]naphthyridin-8-yl)-amine], which Ki is on record?
Its Ki is 33 nM.

With `Clc1cc(Nc2ncc(-c3cncnc3)c3cccnc23)ccn1` [Example 18, (2-Chloro-pyridin-4-yl)-(5-pyrimidin-5-yl-[1,7]naphthyridin-8-yl)-amine] as the compound, how does the Ki read?
Its Ki is 41 nM.

With `Clc1cccc(Nc2nccc3cccnc23)c1` [Example 2, (3-Chloro-phenyl)-[1,7]naphthyridin-8-yl-amine] as the compound, how does the Ki read?
Its Ki is 89 nM.

How did the Ki turn out when `Cc1ccc(Nc2ncc(-c3cccnc3)c3cccnc23)nc1` [Example 9, (5-Methyl-pyridin-2-yl)-(5-pyridin-3-yl-[1,7]naphthyridin-8-yl)-amine] was run?
Its Ki is 86 nM.

Which Ki does the source give for `Fc1cncc(-c2cnc(Nc3ccnc(Cl)c3)c3ncccc23)c1` [Example 14, (2-Chloro-pyridin-4-yl)-[5-(5-fluoro-pyridin-3-yl)-[1,7]naphthyridin-8-yl]-amine] here?
The Ki was 66 nM.

`COc1ccc(-c2cnc(Nc3ccnc(Cl)c3)c3ncccc23)cn1` [Example 12, (2-Chloro-pyridin-4-yl)-[5-(6-methoxy-pyridin-3-yl)-[1,7]naphthyridin-8-yl]-amine] was tested. Which Ki did it give?
The Ki was 56 nM.

`Clc1cccc(Nc2ncc(-c3cccnc3)c3cccnc23)c1` [Example 7, (3-Chloro-phenyl)-(5-pyridin-3-yl-[1,7]naphthyridin-8-yl)-amine] was tested. Which Ki did it give?
Its Ki is 18 nM.

How did the Ki turn out when `Fc1ccc(Nc2ncc(-c3cncc(F)c3)c3cccnc23)nc1` [Example 15, (5-Fluoro-pyridin-2-yl)-[5-(5-fluoro-pyridin-3-yl)-[1,7]naphthyridin-8-yl]-amine] was run?
The Ki was 66 nM.

Reference: patent US7511055B2, “Naphthyridin derivatives” (Hoffmann-La Roche Inc., priority 2005, dated 2009)
